Earlier results, collected in patent US8231899B2, “Quick release pharmaceutical compositions of drug substances” (Nycomed Danmark ApS, priority 1998, dated 2012).

What was measured:
[1] = room temperature

SMILES | solubility in water and 0.1 N HCl [1] | solubility at a pH corresponding to 0.1 N HCl [1] | pKa value
CC(=O)Oc1ccccc1C(=O)O [acetylsalicylic acid] | practically insoluble | – | –
COc1ccc2c(c1)c(CC(=O)O)c(C)n2C(=O)c1ccc(Cl)cc1 [indometacin] | practically insoluble | – | –
CN1C(C(=O)Nc2ccccn2)=C(O)c2sc(Cl)cc2S1(=O)=O [lornoxicam] | – | less than 1 mg 100 ml | about 4.7
